These results are taken from patent US20150141381A1, “TETRACYCLINE COMPOUNDS HAVING TARGET THERAPEUTIC ACTIVITIES” (Paratek Pharmaceuticals, Inc., priority 2001, published 2015).

Like-named read-outs stand apart in the source and are kept apart here.

The test system of one assay is S. aureus RN450. Briefly: In Vitro Anti-Bacterial Activity Assay (MIC), gram positive. It counts as cell-based. The settings on record: Staphylococcus aureus, RN450, 18 h.
In another assay the test system is E. coli mL308 225. Briefly: In Vitro Anti-Bacterial Activity Assay (MIC), gram negative. It counts as cell-based. Conditions: Escherichia coli, ML308225, 18 h.
Where [1] appears, read: gram positive bacteria, read-out: Antibiotic Activity Gram + (MIC).
Where [2] appears, read: gram negative bacteria, read-out: Antibiotic Activity Gram − (MIC).
Setting [3] is: MIC class, Table 3, read-out: Antibiotic Activity Gram +.
Where [4] appears, read: MIC class, Table 3, read-out: Antibiotic Activity Gram −.

As for `CN(C)[C@@H]1C(O)=C(C(N)=O)C(=O)[C@@]2(O)C(O)=C3C(=O)c4c(O)ccc(CNC(=O)c5cnoc5)c4C[C@H]3C[C@@H]12`, the MIC with S. aureus RN450 (setting [1]) was less than 4 µg/mL; with E. coli mL308 225 (setting [2]), more than 4 µg/mL.

Take `COc1ccc(CNCC(F)(F)F)cc1-c1ccc(O)c2c1C[C@H]1C[C@H]3C(N(C)C)C(O)=C(C(N)=O)C(=O)[C@@]3(O)C(O)=C1C2=O` (stereo partly drawn) [NQ]: the results for the MIC in the assay with S. aureus RN450 (setting [3]) and in the assay on E. coli mL308 225 (setting [4]) were less than 4 µg/mL and more than 4 µg/mL, respectively.

Regarding `CN(C)[C@@H]1C(O)=C(C(N)=O)C(=O)[C@@]2(O)C(O)=C3C(=O)c4c(O)ccc(-c5cnccn5)c4C[C@H]3C[C@@H]12`, the MIC in the assay on S. aureus RN450 (setting [1]) and in the assay on E. coli mL308 225 (setting [2]) was less than 4 µg/mL in each case.

Consider `CN1CCC(Nc2ccc(O)c3c2C[C@H]2C[C@H]4[C@H](N(C)C)C(O)=C(C(N)=O)C(=O)[C@@]4(O)C(O)=C2C3=O)CC1`, for which the MIC with S. aureus RN450 (setting [1]) was less than 4 µg/mL; with E. coli mL308 225 (setting [2]), more than 4 µg/mL.

As to `CN(C)[C@@H]1C(O)=C(C(N)=O)C(=O)[C@@]2(O)C(O)=C3C(=O)c4c(O)ccc(-c5ccc(C(=O)O)cc5)c4C[C@H]3C[C@@H]12` [BN], the MIC with S. aureus RN450 (setting [3]) is less than 4 µg/mL; in the assay with E. coli mL308 225 (setting [4]), more than 4 µg/mL.

For `CN1CCC(NCc2ccc3c(c2O)C(=O)C2=C(O)[C@]4(O)C(=O)C(C(N)=O)=C(O)[C@@H](N(C)C)[C@@H]4C[C@@H]2C3)CC1`, the MIC in the assay with S. aureus RN450 (setting [1]) and in the assay on E. coli mL308 225 (setting [2]) was more than 4 µg/mL each time.

As to `CSCc1cc(I)c2c(c1O)C(=O)C1=C(O)[C@]3(O)C(=O)C(C(N)=O)=C(O)[C@@H](N(C)C)[C@@H]3C[C@@H]1C2`, the MIC in the assay on S. aureus RN450 (setting [1]) and with E. coli mL308 225 (setting [2]) was less than 4 µg/mL throughout.

Take `CN(C)c1cc(-c2cccc(N)c2)c(O)c2c1C[C@H]1C[C@H]3[C@H](N(C)C)C(O)=C(C(N)=O)C(=O)[C@@]3(O)C(O)=C1C2=O` [AH]: the MIC was less than 4 µg/mL with S. aureus RN450 (setting [3]) and more than 4 µg/mL with E. coli mL308 225 (setting [4]).

For the molecule `CC(O)C#Cc1ccc(O)c2c1C[C@H]1C[C@H]3[C@H](N(C)C)C(O)=C(C(N)=O)C(=O)[C@@]3(O)C(O)=C1C2=O` (stereo partly drawn) [BD], the MIC with S. aureus RN450 (setting [3]) and with E. coli mL308 225 (setting [4]) was less than 4 µg/mL each time.

Regarding `Cc1ccc(O)c2c1C[C@H]1C[C@H]3[C@H](N(C)C)C(O)=C(C(N)=O)C(=O)[C@@]3(O)C(O)=C1C2=O`, the MIC in the assay on S. aureus RN450 (setting [1]) and in the assay on E. coli mL308 225 (setting [2]) was less than 4 µg/mL throughout.

For the molecule `CCc1cc(CNCCC(F)(F)F)c(O)c2c1C[C@H]1C[C@H]3[C@H](N(C)C)C(O)=C(C(N)=O)C(=O)[C@@]3(O)C(O)=C1C2=O`, the MIC in the assay on S. aureus RN450 (setting [1]) and in the assay with E. coli mL308 225 (setting [2]) was less than 4 µg/mL each time.

`CN(C)c1cc(NC(=O)NC(=O)c2ccccc2)c(O)c2c1C[C@H]1C[C@H]3[C@H](N(C)C)C(O)=C(C(N)=O)C(=O)[C@@]3(O)C(O)=C1C2=O` [CH]: the values for the MIC with S. aureus RN450 (setting [3]) and in the assay with E. coli mL308 225 (setting [4]) were less than 4 µg/mL and more than 4 µg/mL, respectively.

Consider `CN(C)[C@@H]1C(O)=C(C(N)=O)C(=O)[C@@]2(O)C(O)=C3C(=O)c4c(O)c(CN)cc(Cl)c4C=C3C[C@@H]12`, for which the MIC in the assay with S. aureus RN450 (setting [1]) and in the assay on E. coli mL308 225 (setting [2]) was more than 4 µg/mL each time.

As to `CC(=O)/C=C/c1ccc(O)c2c1C[C@H]1C[C@H]3[C@H](N(C)C)C(O)=C(C(N)=O)C(=O)[C@@]3(O)C(O)=C1C2=O`, the results for the MIC in the assay on S. aureus RN450 (setting [1]) and with E. coli mL308 225 (setting [2]) were less than 4 µg/mL and more than 4 µg/mL, respectively.

For the molecule `CN(C)[C@@H]1C(O)=C(C(N)=O)C(=O)[C@@]2(O)C(O)=C3C(=O)c4c(ccc(NC(=O)N5CCOCC5)c4O)C[C@H]3C[C@@H]12` [IL], the MIC in the assay on S. aureus RN450 (setting [3]) and in the assay with E. coli mL308 225 (setting [4]) was more than 4 µg/mL throughout.

In the case of `Cc1ccsc1/C=C/c1ccc(O)c2c1C[C@H]1C[C@H]3[C@H](N(C)C)C(O)=C(C(N)=O)C(=O)[C@@]3(O)C(O)=C1C2=O`, the MIC with S. aureus RN450 (MIC class, Table 3 (Continued), read-out: Gram+ activity) is less than 4 µg/mL; in the assay with E. coli mL308 225 (MIC class, Table 3 (Continued), read-out: Gram− activity), less than 4 µg/mL.

For the molecule `CN(C)[C@@H]1C(OCc2ccccc2)=C(C(N)=O)C(=O)[C@@]2(O)C(O)=C3C(=O)c4c(cccc4OCc4ccccc4)C[C@H]3C[C@@H]12` [OJ], the MIC in the assay with S. aureus RN450 (setting [3]) and in the assay with E. coli mL308 225 (setting [4]) was more than 4 µg/mL in each case.

In the case of `CCc1cc(CNCC(C)C)c(O)c2c1C[C@H]1C[C@H]3[C@H](N(C)C)C(O)=C(C(N)=O)C(=O)[C@@]3(O)C(O)=C1C2=O` [IZ], the MIC with S. aureus RN450 (setting [3]) and in the assay on E. coli mL308 225 (setting [4]) was less than 4 µg/mL each time.
